Data from ChEMBL document CHEMBL5042489, “Inhibitors of the Hippo Pathway Kinases STK3/MST2 and STK4/MST1 Have Utility for the Treatment of Acute Myeloid Leukemia” (J Med Chem, 2022).
Active and inactive are the calls of the source. No cut-off for these calls is given here.

What was measured:
[1] = molecular target: T1, Serine/threonine-protein kinase 3 (Homo sapiens) (UniProt Q13188); assay: Inhibition of recombinant N-terminal His6-tagged human STK3 (18 to 311 residues) expressed in Escherichia coli assessed as melting temperature at 20 uM by thermal shift assay
T1 sequence (whole entry): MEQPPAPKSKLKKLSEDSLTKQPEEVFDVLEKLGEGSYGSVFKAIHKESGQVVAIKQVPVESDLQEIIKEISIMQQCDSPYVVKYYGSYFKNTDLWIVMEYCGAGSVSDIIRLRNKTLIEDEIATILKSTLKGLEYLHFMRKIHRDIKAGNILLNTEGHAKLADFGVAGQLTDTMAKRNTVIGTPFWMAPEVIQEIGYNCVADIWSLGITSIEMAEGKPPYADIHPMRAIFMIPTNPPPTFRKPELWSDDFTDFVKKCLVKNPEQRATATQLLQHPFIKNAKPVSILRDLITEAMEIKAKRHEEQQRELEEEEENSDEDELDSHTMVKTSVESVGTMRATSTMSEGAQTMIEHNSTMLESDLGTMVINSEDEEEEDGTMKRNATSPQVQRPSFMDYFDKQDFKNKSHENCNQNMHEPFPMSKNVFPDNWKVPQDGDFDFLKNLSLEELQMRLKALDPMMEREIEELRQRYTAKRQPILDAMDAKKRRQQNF

[2] = molecular target: Leucine-rich repeat serine/threonine-protein kinase 2 (Homo sapiens, UniProt Q5S007); assay: Displacement of K5 tracer from full length C-terminal NanoLuc fused human LRRK2 expressed in HEK293T cells incubated for 2 hrs by NanoBRET assay; format: cell-based
Leucine-rich repeat serine/threonine-protein kinase 2, sequence (Q5S007 whole entry, the tested form may be a part): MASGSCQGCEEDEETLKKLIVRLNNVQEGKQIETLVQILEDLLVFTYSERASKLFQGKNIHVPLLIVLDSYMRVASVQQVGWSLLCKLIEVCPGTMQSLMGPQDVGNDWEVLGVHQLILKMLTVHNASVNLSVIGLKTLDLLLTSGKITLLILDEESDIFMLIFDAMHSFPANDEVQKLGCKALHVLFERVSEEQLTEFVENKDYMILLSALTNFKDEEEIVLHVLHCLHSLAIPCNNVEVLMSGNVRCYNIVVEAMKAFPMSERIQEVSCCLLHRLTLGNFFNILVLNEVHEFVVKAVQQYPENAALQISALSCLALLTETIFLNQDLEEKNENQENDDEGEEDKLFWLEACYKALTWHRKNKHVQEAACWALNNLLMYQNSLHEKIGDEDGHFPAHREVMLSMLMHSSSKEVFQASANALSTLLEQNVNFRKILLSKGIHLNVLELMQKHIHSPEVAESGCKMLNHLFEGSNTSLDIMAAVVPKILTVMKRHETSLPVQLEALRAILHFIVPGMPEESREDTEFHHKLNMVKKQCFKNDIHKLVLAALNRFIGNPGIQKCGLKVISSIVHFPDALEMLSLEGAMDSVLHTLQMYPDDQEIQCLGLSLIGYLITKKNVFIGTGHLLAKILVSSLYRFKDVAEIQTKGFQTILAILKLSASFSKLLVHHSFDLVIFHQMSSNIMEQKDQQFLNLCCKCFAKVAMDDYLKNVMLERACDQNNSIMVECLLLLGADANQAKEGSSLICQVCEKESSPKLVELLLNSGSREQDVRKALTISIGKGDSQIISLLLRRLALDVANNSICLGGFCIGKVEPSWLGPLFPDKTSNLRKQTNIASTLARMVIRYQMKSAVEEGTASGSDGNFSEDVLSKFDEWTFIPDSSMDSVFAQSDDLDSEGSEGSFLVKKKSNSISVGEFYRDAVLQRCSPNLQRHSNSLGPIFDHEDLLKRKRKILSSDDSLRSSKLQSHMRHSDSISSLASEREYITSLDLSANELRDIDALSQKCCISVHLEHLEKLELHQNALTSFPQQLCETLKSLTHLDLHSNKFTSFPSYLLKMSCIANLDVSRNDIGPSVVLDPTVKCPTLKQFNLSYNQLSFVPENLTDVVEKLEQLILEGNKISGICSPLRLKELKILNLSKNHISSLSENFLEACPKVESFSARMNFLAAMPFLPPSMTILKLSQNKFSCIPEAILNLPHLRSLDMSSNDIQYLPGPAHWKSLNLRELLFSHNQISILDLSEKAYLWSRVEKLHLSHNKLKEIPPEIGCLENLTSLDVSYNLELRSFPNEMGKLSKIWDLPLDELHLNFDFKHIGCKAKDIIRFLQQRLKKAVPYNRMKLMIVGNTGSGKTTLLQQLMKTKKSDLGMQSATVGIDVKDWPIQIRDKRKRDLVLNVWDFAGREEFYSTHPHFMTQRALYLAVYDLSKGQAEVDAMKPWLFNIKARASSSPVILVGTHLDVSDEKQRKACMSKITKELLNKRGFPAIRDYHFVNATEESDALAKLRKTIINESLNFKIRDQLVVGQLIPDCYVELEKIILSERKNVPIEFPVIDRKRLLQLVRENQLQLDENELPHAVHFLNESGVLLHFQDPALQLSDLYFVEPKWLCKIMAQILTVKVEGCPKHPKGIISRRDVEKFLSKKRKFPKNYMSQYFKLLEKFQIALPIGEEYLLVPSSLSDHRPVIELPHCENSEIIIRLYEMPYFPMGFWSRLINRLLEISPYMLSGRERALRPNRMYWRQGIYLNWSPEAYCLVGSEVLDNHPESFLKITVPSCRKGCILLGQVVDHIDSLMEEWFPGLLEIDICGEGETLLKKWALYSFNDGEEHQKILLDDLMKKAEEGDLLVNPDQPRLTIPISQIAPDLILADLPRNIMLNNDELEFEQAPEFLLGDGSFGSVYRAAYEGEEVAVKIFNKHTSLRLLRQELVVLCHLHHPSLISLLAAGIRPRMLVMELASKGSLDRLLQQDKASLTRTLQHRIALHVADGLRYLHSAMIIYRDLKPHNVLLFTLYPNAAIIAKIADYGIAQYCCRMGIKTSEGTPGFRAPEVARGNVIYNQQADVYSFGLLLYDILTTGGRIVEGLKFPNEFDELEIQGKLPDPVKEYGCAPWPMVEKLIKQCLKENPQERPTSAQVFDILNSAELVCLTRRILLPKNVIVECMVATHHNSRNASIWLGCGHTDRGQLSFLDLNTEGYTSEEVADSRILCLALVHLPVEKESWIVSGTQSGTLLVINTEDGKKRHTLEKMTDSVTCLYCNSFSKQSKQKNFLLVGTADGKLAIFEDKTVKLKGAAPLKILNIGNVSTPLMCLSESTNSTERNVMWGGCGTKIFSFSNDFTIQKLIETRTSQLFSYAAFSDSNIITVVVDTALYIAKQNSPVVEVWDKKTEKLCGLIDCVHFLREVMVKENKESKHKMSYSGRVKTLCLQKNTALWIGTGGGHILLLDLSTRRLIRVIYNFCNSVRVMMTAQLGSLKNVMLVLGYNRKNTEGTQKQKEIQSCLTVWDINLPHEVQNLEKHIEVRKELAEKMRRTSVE

[3] = molecular target: T1, Serine/threonine-protein kinase 3 (Homo sapiens); assay: Inhibition of STK3 in HEK293 cells assessed as increase in YAP/TAZ-TEAD activity at 10 uM incubated for 48 hrs by Dual-Glo luciferase assay; format: cell-based
[4] = Drug concentration in C57BL/6 mouse plasma at 20 mg/kg, ip measured after 30 mins by LC-MS/MS analysis; format: ADME, organism-based
[5] = molecular target: T2, Serine/threonine-protein kinase 3 (Homo sapiens, UniProt Q13188)
T2 sequence (Q13188 whole entry): T1 sequence (whole entry)

[6] = molecular target: T2, Serine/threonine-protein kinase 3; remark: listed apart in the source
Description: Displacement of K5 tracer from full length C-terminal NanoLuc fused human STK3 expressed in HEK293T cells incubated for 2 hrs by NanoBRET assay

[7] = molecular target: T3, Serine/threonine-protein kinase 4 (Homo sapiens, UniProt Q13043)
T3 sequence (Q13043 whole entry): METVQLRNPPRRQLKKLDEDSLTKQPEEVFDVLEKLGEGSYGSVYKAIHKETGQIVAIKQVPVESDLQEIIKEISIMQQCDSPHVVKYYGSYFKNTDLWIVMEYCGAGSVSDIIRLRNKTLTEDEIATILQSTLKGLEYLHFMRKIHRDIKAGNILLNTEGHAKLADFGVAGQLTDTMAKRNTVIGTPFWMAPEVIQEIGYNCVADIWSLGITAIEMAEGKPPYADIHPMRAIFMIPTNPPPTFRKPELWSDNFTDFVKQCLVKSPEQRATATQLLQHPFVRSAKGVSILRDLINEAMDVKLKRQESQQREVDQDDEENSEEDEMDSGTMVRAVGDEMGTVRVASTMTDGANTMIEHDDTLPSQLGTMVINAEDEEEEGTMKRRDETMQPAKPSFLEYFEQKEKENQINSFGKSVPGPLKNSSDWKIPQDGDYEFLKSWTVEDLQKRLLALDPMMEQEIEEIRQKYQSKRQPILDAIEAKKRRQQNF
Description: Displacement of K5 tracer from full length C-terminal NanoLuc fused human STK4 expressed in HEK293T cells incubated for 2 hrs by NanoBRET assay

[8] = molecular target: T3, Serine/threonine-protein kinase 4; remark: listed apart in the source
[9] = molecular target: T3, Serine/threonine-protein kinase 4; assay: Binding affinity to recombinant N-terminal His6-tagged human STK4 (43 to 431 residues) expressed in Escherichia coli assessed as dissociation constant by isothermal titration calorimetry
[10] = molecular target: T3, Serine/threonine-protein kinase 4; remark: listed apart in the source
[11] = molecular target: T4, Serine/threonine-protein kinase 4 (Homo sapiens) (UniProt Q13043); conditions: dose 20.0 µM
T4 sequence (whole entry): T3 sequence (Q13043 whole entry)
Description: Inhibition of recombinant N-terminal His6-tagged human STK4 (43 to 431 residues) expressed in Escherichia coli assessed as melting temperature at 20 uM by thermal shift assay (Rvb = 55 degreeC)

[12] = molecular target: T2, Serine/threonine-protein kinase 3; assay: Binding affinity to recombinant N-terminal His6-tagged human STK3 (18 to 311 residues) expressed in Escherichia coli assessed as dissociation constant by isothermal titration calorimetry
[13] = substrate: Clc1cccc(-c2c[nH]c3ncnc(N4CCOCC4)c23)c1; conditions: Homo sapiens; time 165.0 min

With Fc1cccc(-c2c[nH]c3ncnc(N4CCOCC4)c23)c1 as the molecule, how does the ΔTm [1] read?
The ΔTm was greater than 5.2 °C.

What about the IC50 [2] of the same molecule?
The IC50 was 246 nM.

And the inhibition [3]?
The inhibition was “Active”.

And the concentration at 0.5 h [4]?
Its concentration at 0.5 h is greater than 1400 nM.

What about the IC50 [5] of the same molecule?
Its IC50 is 191 nM.

What about the IC50 [6] of the same molecule?
The IC50 was 373 nM.

For Clc1cccc(-c2coc3ncnc(N4CCOCC4)c23)c1, which IC50 [5] is on record?
Its IC50 is greater than 10000 nM.

Which IC50 [2] does the source give for CNC1CCN(c2ncnc3[nH]cc(-c4cccc(Cl)c4)c23)CC1 here?
Its IC50 is 3540 nM.

What about the concentration at 0.5 h [4] of the same molecule?
Its concentration at 0.5 h is greater than 1400 nM.

Which IC50 [7] does the source give for CN1C(=O)c2sccc2N(C)c2nc(Nc3ccc(S(N)(=O)=O)cc3)ncc21 here?
Its IC50 is 1040 nM.

Which IC50 [5] does the source give for Clc1cccc(-c2c[nH]c3ncnc(NCC4CC4)c23)c1 here?
Its IC50 is 213 nM.

For Clc1cccc(-c2c[nH]c3ncnc(N4CCCCC4)c23)c1, which ΔTm [1] is on record?
The ΔTm was greater than 5.2 °C.

What about the IC50 [2] of the same molecule?
Its IC50 is 1140 nM.

And the concentration at 0.5 h [4]?
The concentration at 0.5 h was greater than 1400 nM.

And the IC50 [5]?
The IC50 was 167 nM.

And the IC50 [6]?
Its IC50 is 1100 nM.

With CCN(CCO)c1ncnc2[nH]cc(-c3cccc(Cl)c3)c12 as the molecule, how does the IC50 [5] read?
Its IC50 is 226 nM.

With Cc1ccc(-c2c[nH]c3ncnc(N4CCOCC4)c23)cc1 as the molecule, how does the inhibition [3] read?
The inhibition was “inactive”.

What about the IC50 [5] of the same molecule?
The IC50 was 2020 nM.

For COc1cccc(-c2c[nH]c3ncnc(N4CCOCC4)c23)c1, which IC50 [5] is on record?
Its IC50 is 766 nM.

What does the source list for OCCCNc1ncnc2[nH]cc(-c3cccc(Cl)c3)c12?
IC50 [2]: 2490 nM; concentration at 0.5 h [4]: > 1400 nM; IC50 [5]: 173 nM; IC50 [6]: 668 nM

For c1ccc(-c2c[nH]c3ncnc(N4CCOCC4)c23)cc1, which IC50 [8] is on record?
The IC50 was 183 nM.

And the IC50 [5]?
The IC50 was 197 nM.

With CC(CO)CN(C)c1ncnc2[nH]cc(-c3cccc(Cl)c3)c12 (stereo not given) as the molecule, how does the IC50 [2] read?
The IC50 was 7140 nM.

What about the concentration at 0.5 h [4] of the same molecule?
Its concentration at 0.5 h is greater than 1400 nM.

What about the IC50 [8] of the same molecule?
Its IC50 is 38 nM.

And the IC50 [5]?
The IC50 was 58 nM.

And the IC50 [6]?
The IC50 was 289 nM.

And the IC50 [7]?
Its IC50 is 444 nM.

With c1nc(N2CCOCC2)c2c(-c3ccoc3)c[nH]c2n1 as the molecule, how does the IC50 [5] read?
Its IC50 is 986 nM.

What does the source list for Clc1cccc(-c2c[nH]c3ncnc(N4CCOCC4)c23)c1?
Kd [9]: 147 nM; IC50 [2]: 264 nM; concentration at 0.5 h [4]: > 1400 nM; IC50 [8]: 35 nM; Ki [10]: 50 nM; IC50 [7]: 320 nM; Tm [11]: 63.8 °C

With Cc1cccc(-c2c[nH]c3ncnc(N4CCOCC4)c23)c1 as the molecule, how does the IC50 [2] read?
Its IC50 is 127 nM.

And the concentration at 0.5 h [4]?
Its concentration at 0.5 h is greater than 1400 nM.

What about the IC50 [5] of the same molecule?
Its IC50 is 121 nM.

What about the IC50 [6] of the same molecule?
Its IC50 is 434 nM.

For COc1ccccc1-c1c[nH]c2ncnc(N3CCOCC3)c12, which IC50 [5] is on record?
Its IC50 is 230 nM.

What does the source list for CN(CCO)c1ncnc2[nH]cc(-c3cccc(Cl)c3)c12?
IC50 [2]: 1520 nM; concentration at 0.5 h [4]: > 1400 nM; IC50 [8]: 79 nM; IC50 [5]: 117 nM; IC50 [6]: 631 nM; IC50 [7]: 406 nM

Which IC50 [5] does the source give for CN(C)c1ncnc2[nH]cc(-c3cccc(Cl)c3)c12 here?
The IC50 was 349 nM.

For N#Cc1cccc(-c2c[nH]c3ncnc(N4CCOCC4)c23)c1, which IC50 [2] is on record?
The IC50 was 84 nM.

And the IC50 [6]?
Its IC50 is 197 nM.

With Fc1ccccc1-c1c[nH]c2ncnc(N3CCOCC3)c12 as the molecule, how does the IC50 [5] read?
The IC50 was 558 nM.

With CC1(O)CCN(c2ncnc3[nH]cc(-c4cccc(Cl)c4)c23)CC1 as the molecule, how does the IC50 [5] read?
The IC50 was 189 nM.

For c1coc(-c2c[nH]c3ncnc(N4CCOCC4)c23)c1, which IC50 [5] is on record?
Its IC50 is 487 nM.

What does the source list for Clc1cccc(-c2n[nH]c3ncnc(N4CCOCC4)c23)c1?
IC50 [8]: 1610 nM; IC50 [5]: 4800 nM

Which Kd [12] does the source give for Clc1cccc(-c2c[nH]c3nccc(N4CCOCC4)c23)c1 here?
Its Kd is 48 nM.

And the Kd [9]?
Its Kd is 158 nM.

And the IC50 [2]?
The IC50 was 121 nM.

What about the inhibition [3] of the same molecule?
The inhibition was “Active”.

And the concentration at 0.5 h [4]?
The concentration at 0.5 h was greater than 1400 nM.

What about the IC50 [8] of the same molecule?
The IC50 was 66 nM.

And the IC50 [5]?
Its IC50 is 119 nM.

And the IC50 [6]?
Its IC50 is 373 nM.

And the IC50 [7]?
The IC50 was 192 nM.

And the Tm [11]?
Its Tm is 63.6 °C.

Which concentration at 0.5 h [4] does the source give for Fc1ccc(-c2c[nH]c3ncnc(N4CCOCC4)c23)cc1 here?
The concentration at 0.5 h was greater than 1400 nM.

What about the IC50 [5] of the same molecule?
Its IC50 is 766 nM.

What does the source list for CC1(N)CCN(c2ncnc3[nH]cc(-c4cccc(Cl)c4)c23)CC1?
concentration at 0.5 h [4]: > 1400 nM; IC50 [5]: 278 nM

With c1csc(-c2c[nH]c3ncnc(N4CCOCC4)c23)c1 as the molecule, how does the IC50 [5] read?
The IC50 was 267 nM.

For Clc1cccc(-c2c[nH]c3ccnc(N4CCOCC4)c23)c1, which IC50 [5] is on record?
The IC50 was greater than 10000 nM.

Which results are given for Cc1ccccc1-c1c[nH]c2ncnc(N3CCOCC3)c12?
inhibition [3]: inactive; IC50 [8]: 2400 nM; IC50 [5]: 6900 nM

For Clc1cccc(-c2csc3ncnc(N4CCOCC4)c23)c1, which IC50 [5] is on record?
Its IC50 is greater than 10000 nM.

B1: Serine/threonine-protein kinase 4 (Homo sapiens), Q13043 (protein)
chain: T3 sequence (Q13043 whole entry)
With B1 as the molecule, how does the Km [13] read?
The Km was 140 µM.
